Results as given in patent US20230157288A1, “PEST CONTROL METHOD, PEST CONTROL AGENT COMPOSITION, AND PEST CONTROL AGENT SET” (priority 2020, published 2023).
Where a name gives a salt, the structure may show the parent alone. Read-outs that look alike come from different tables or passages of the source.

What was measured:
Assay type in all cases: in vivo
[1] = tested on: Plutella xylostella; experiment: Test for confirming effect on Plutella xylostella (cabbage leaf immersion, insecticidal rate); conditions: single chemical
Protocol: Test for Confirming Effect on Plutella xylostella
A flowable agent containing the compound A was diluted with water containing RABIDEN® 3S diluted 5000 times to prepare chemical solutions A containing the compound A at twice concentrations described in Table 3.
A preparation containing the compound B or a flowable agent containing the compound B was diluted with water containing RABIDEN 3S diluted 5000 times to prepare chemical solutions B containing the compound B at twice concentrations described in Table 3, respectively.
Cabbage leaves were immersed in a mixed solution obtained by mixing the chemical solution A and the chemical solution B in an equivalent amount for 30 seconds, and these cabbage leaves were placed in a petri dish, and five second-instar Plutella xylostella larvae were released (AB mixture application plot).
(§1) The chemical solution A and the chemical solution B were twice diluted with the water containing RABIDEN 3S diluted 5000 times to obtain a chemical solution A′ and a chemical solution B′.
Cabbage leaves were immersed in the chemical solution A′ for 30 seconds, and these cabbage leaves were placed in another petri dish, and five second-instar Plutella xylostella larvae were released (A single application plot). Cabbage leaves were immersed in the chemical solution B′ for 30 seconds, and these cabbage leaves were placed in another petri dish, and five second-instar Plutella xylostella larvae were released (B single application plot).
Then, these petri dishes were placed in a thermostatic chamber at a temperature of 25° C. and a humidity of 60%. Three days after the larva release, viability determination was performed, and the insecticidal rate was calculated by the following equation. The test was repeated twice.
(§2) Insecticidal rate (%)=(the number of dead insects/the number of tested insects)×100
(§3) To show the degree of a synergistic effect, the “effectiveness expectation” was calculated based on the Colby method. When the effectiveness is higher than the “effectiveness expectation”, it is determined that there is a synergistic effect.
(§4) Expectation of insecticidal rate (%) (E)=X+Y−XY/100
(§5) X: measurement of insecticidal rate in B single application plot (%)
(§6) Y: measurement of insecticidal rate in A single application plot (%)

[2] = tested on: Phyllotreta striolata; experiment: Test for confirming effect on Phyllotreta striolata (bok choy seedling sprinkling, insecticidal rate)
Protocol: Test for Confirming Effect on Phyllotreta striolata
A flowable agent containing the compound A was diluted with water containing RABIDEN 3S diluted 5000 times to prepare chemical solutions A containing the compound A at twice concentrations described in Table 5.
A preparation containing the compound B or a flowable agent containing the compound B was diluted with water containing RABIDEN 3S diluted 5000 times to prepare chemical solutions B containing the compound B at twice concentrations described in Table 5.
A mixed solution obtained by mixing the chemical solution A and the chemical solution B in an equivalent amount was sprinkled on bok choy seedlings (at the seventh true leaf stage) planted in 9-cm pots. After air dry, these bok choy seedlings were placed in plastic cups, and ten Phyllotreta striolata imagoes were released (AB mixture application plot).
as §1
The chemical solution A′ was sprinkled on bok choy seedlings (at the seventh true leaf stage) planted in 9-cm pots. After air dry, these bok choy seedlings were placed in plastic cups, and ten Phyllotreta striolata imagoes were released (A single application plot). The chemical solution B′ was sprinkled on bok choy seedlings (at the seventh true leaf stage) planted in 9-cm pots. After air dry, these bok choy seedlings were placed in plastic cups, and ten Phyllotreta striolata imagoes were released (B single application plot).
Then, the bok choy seedlings sprinkled with the chemical solutions were placed in a thermostatic chamber at a temperature of 25° C. and a humidity of 60%, viability determination was performed 6 days after the insect release, and the insecticidal rate was calculated by the following equation. The test was repeated twice.
Insecticidal rate (%)=(the number of the dead insects/the number of tested insects)×100
as §3, §4, §5, §6

[3] = tested on: Aphis gossypii; experiment: Test for confirming effect on Aphis gossypii (cucumber sprinkling, insecticidal rate)
Protocol: Test for confirming effect on Aphis gossypii A flowable agent containing the compound A was diluted with water containing RABIDEN 3S diluted 5000 times to prepare chemical solutions A containing the compound A at twice concentrations described in Table 4.
A preparation containing the compound B or a flowable agent containing the compound B was diluted with water containing RABIDEN 3S diluted 5000 times to prepare chemical solutions B containing the compound B at twice concentrations described in Table 4.
First, 9-cm pots were sown with cucumbers. Aphis gossypii female imagoes were released on the cucumbers 10 days after the sprouting. The borne first-instar larvae were left, and the female imagoes were removed on the next day. A mixed solution obtained by mixing the chemical solution A and the chemical solution B in an equivalent amount was sprinkled on the cucumbers (AB mixture application plot).
as §1
The chemical solution A′ was sprinkled on the cucumbers sown with the first-instar larvae by the same method as in the AB mixture application plot (A single application plot). The chemical solution B′ was sprinkled on the cucumbers sown with the first-instar larvae by the same method as in the AB mixture application plot (B single application plot).
Then, the cucumbers sprinkled with the chemical solutions were placed in a thermostatic chamber at a temperature of 25° C. and a humidity of 60%, the viability of the Aphis gossypii was inspected after 6 days, and the insecticidal rate was calculated by the following equation. The test was repeated twice.
as §2, §3, §4, §5, §6

[4] = Plutella xylostella, read-out: Effectiveness Measurement (insecticidal rate)
[5] = Aphis gossypii, 144 h, single chemical, 0.12 ppm, after 6 days, read-out: Effectiveness Measurement (insecticidal rate)
[6] = Aphis gossypii, 144 h, single chemical, 2 ppm, after 6 days, read-out: Effectiveness Measurement (insecticidal rate)
[7] = Phyllotreta striolata, 144 h, single application, 31 ppm, Phyllotreta striolata imagoes, 6 days after release, read-out: Effectiveness Measurement (insecticidal rate)
[8] = single chemical, 0.12 ppm, after 6 days
[9] = Phyllotreta striolata, 144 h, single application, Phyllotreta striolata imagoes, 6 days after release, read-out: Effectiveness Measurement (insecticidal rate)
[10] = Plutella xylostella, 0.5 ppm, read-out: Effectiveness Measurement (insecticidal rate)
[11] = Aphis gossypii, 144 h, single chemical, after 6 days, read-out: Effectiveness Measurement (insecticidal rate)

N#Cc1ccc(CC(=NNC(=O)Nc2ccc(OC(F)(F)F)cc2)c2cccc(C(F)(F)F)c2)cc1 (mixture of isomers) [Metaflumizone, metaflumizone]
Effectiveness Measurement (insecticidal rate) ([1]; 0.5 ppm): 20%
Effectiveness Measurement (insecticidal rate) ([2]; single application, 31 ppm, Phyllotreta striolata imagoes, 6 days after release): 40%

Cc1c(COC(=O)[C@@H]2[C@H](/C=C(\Cl)C(F)(F)F)C2(C)C)cccc1-c1ccccc1 (racemic) [Bifenthrin]
pest or weed control at 125 ppm ([1]; Plutella xylostella, 125 ppm, read-out: Effectiveness Measurement (insecticidal rate)): 40%
pest or weed control at 0.03 ppm ([3]; Aphis gossypii, 144 h, single chemical, 0.03 ppm, after 6 days, read-out: Effectiveness Measurement (insecticidal rate)): 42%

COP(=O)(NC(C)=O)SC (stereo not shown) [Acephate, acephate]
pest or weed control at 31 ppm ([3]; Aphis gossypii, 144 h, read-out: Effectiveness Measurement (insecticidal rate)): 50%
pest or weed control at 8 ppm ([2]; Phyllotreta striolata, 144 h, read-out: Effectiveness Measurement (insecticidal rate)): 40%

C/C(=N\C#N)N(C)Cc1ccc(Cl)nc1 [Acetamiprid, acetamiprid]
pest or weed control at 8 ppm [1, 4]: 10%
pest or weed control at 0.12 ppm [3, 5]: 40%
pest or weed control at 8 ppm ([2]; Phyllotreta striolata, 144 h, single application, 8 ppm, Phyllotreta striolata imagoes, 6 days after release, read-out: Effectiveness Measurement (insecticidal rate)): 20%

CC(C)N1C(=O)N(c2ccccc2)CS/C1=N\C(C)(C)C [Buprofezin]
pest or weed control at 31 ppm ([3]; Aphis gossypii, 144 h, single chemical, 31 ppm, after 6 days, read-out: Effectiveness Measurement (insecticidal rate)): 33%

CNC(=O)Oc1cccc2c1OC(C)(C)C2 [Carbofuran, carbofuran]
pest or weed control at 2 ppm [1, 4]: 10%
pest or weed control at 2 ppm [3, 6]: 14%
pest or weed control at 31 ppm [2, 7]: 20%

CN(C)C(CSC(N)=O)CSC(N)=O [Cartap hydrochloride, cartap hydrochloride]
pest or weed control at 2 ppm [1, 4]: 40%
pest or weed control at 31 ppm [2, 7]: 60%

CCOCn1c(-c2ccc(Cl)cc2)c(C#N)c(Br)c1C(F)(F)F [Chlorfenapyr, chlorfenapyr]
pest or weed control at 2 ppm [1, 4]: 20%
pest or weed control at 2 ppm [3, 6]: 6%
pest or weed control at 2 ppm ([2]; Phyllotreta striolata, 144 h, single application, 2 ppm, Phyllotreta striolata imagoes, 6 days after release, read-out: Effectiveness Measurement (insecticidal rate)): 40%

CCS(=O)(=O)c1cc(C2CC2)cnc1-c1ncc(C=C(Cl)C(F)(F)F)n1C [Compound (II)]
pest or weed control at 0.12 ppm ([1]; Plutella xylostella, 0.12 ppm, read-out: Effectiveness Measurement (insecticidal rate)): 10%
Effectiveness Measurement (insecticidal rate) ([1]; 0.12 ppm): 10%
pest or weed control at 0.12 ppm [3, 5]: 18%
Effectiveness Measurement (insecticidal rate) [3, 8]: 18%
pest or weed control at 0.5 ppm [2, 9]: 20%

CCS(=O)(=O)c1cc(C2CC2)cnc1-c1ncc(C(F)C(F)(C(F)(F)F)C(F)(F)F)n1C (stereo not shown) [Compound (III)]
pest or weed control at 0.5 ppm [1, 10]: 40%
pest or weed control at 0.5 ppm [3, 11]: 31%
pest or weed control at 0.5 ppm [2, 9]: 20%

CCS(=O)(=O)c1cc(C(F)(F)F)cnc1-c1ncc(/C=C(\Cl)C(F)(F)C(F)(F)F)n1C [Compound (IV)]
pest or weed control at 0.03 ppm ([1]; Plutella xylostella, 0.03 ppm, read-out: Effectiveness Measurement (insecticidal rate)): 20%
pest or weed control at 0.5 ppm [3, 11]: 64%
pest or weed control at 0.5 ppm [2, 9]: 10%

CNC(=O)c1cc(C#N)cc(C)c1NC(=O)c1cc(Br)nn1-c1ncccc1Cl [Cyantraniliprole, cyantraniliprole]
pest or weed control at 8 ppm [1, 4]: 10%
pest or weed control at 0.12 ppm [3, 5]: 50%
pest or weed control at 0.5 ppm [2, 9]: 20%

N#Cc1nn(-c2c(Cl)cc(C(F)(F)F)cc2Cl)c(N)c1[S+]([O-])C(F)(F)F (stereo not shown) [Fipronil, fipronil]
pest or weed control at 0.5 ppm [1, 10]: 40%
pest or weed control at 0.5 ppm [3, 11]: 29%
pest or weed control at 0.12 ppm ([2]; Phyllotreta striolata, 144 h, single application, 0.12 ppm, Phyllotreta striolata imagoes, 6 days after release, read-out: Effectiveness Measurement (insecticidal rate)): 20%

N#CCNC(=O)c1cnccc1C(F)(F)F [Flonicamid]
Effectiveness Measurement (insecticidal rate) [3, 8]: 21%

CON=CNC(=O)c1ccc(C2=NOC(c3cc(Cl)cc(Cl)c3)(C(F)(F)F)C2)cc1C (stereo not shown) [Fluxametamide, fluxametamide]
Effectiveness Measurement (insecticidal rate) ([1]; 0.12 ppm): 40%
Effectiveness Measurement (insecticidal rate) ([3]; single chemical, 2 ppm, after 6 days): 60%
Effectiveness Measurement (insecticidal rate) ([2]; single application, 2 ppm, Phyllotreta striolata imagoes, 6 days after release): 20%

CC1=NNC(=O)N(/N=C/c2cccnc2)C1 [Pymetrozine]
pest or weed control at 0.12 ppm [3, 5]: 68%

CCc1ccc(C(=O)NN(C(=O)c2cc(C)cc(C)c2)C(C)(C)C)cc1 [Tebufenozide]
pest or weed control at 31 ppm ([1]; Plutella xylostella, 31 ppm, read-out: Effectiveness Measurement (insecticidal rate)): 40%

O=C(NC(=O)c1c(F)cccc1F)Nc1cc(Cl)c(F)c(Cl)c1F [Teflubenzuron]
pest or weed control at 0.5 ppm [1, 10]: 40%

CCc1nn(C)c(C(=O)NCc2ccc(Oc3ccc(C)cc3)cc2)c1Cl [Tolfenpyrad]
pest or weed control at 8 ppm [1, 4]: 20%
pest or weed control at 0.12 ppm [3, 5]: 18%

Abamectin
Effectiveness Measurement (insecticidal rate) ([1]; 0.5 ppm): 40%

Spinetoram
Effectiveness Measurement (insecticidal rate) ([1]; 0.0076 ppm): 40%
